According to the supplement of paper PMC10307832:

Key:
Experiment in all cases: relative viability (nuclei count vs DMSO), 5 days (fraction); higher = more cells survive
Neratinib + Palbociclib = compound: CCOc1cc2ncc(C#N)c(Nc3ccc(OCc4ccccn4)c(Cl)c3)c2cc1NC(=O)/C=C/CN(C)C [Neratinib] + CC(=O)c1c(C)c2cnc(Nc3ccc(N4CCNCC4)cn3)nc2n(C2CCCC2)c1=O [Palbociclib] (partner 0.5 µM)
In short: (§1)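 Lung cancer cell lines, seeded in 1536-well plates, were treated the following day by pin tool with a single drug or with five library-drug doses (not always all listed) in √10 steps on top of a fixed anchor-drug dose. Cells were fixed and nuclei stained in one step after 5 days, and nuclei were counted. Relative viability is the nuclei count for treated wells divided by that for vehicle wells, reported as medians of duplicate plates.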

Neratinib + Crizotinib = compound: CCOc1cc2ncc(C#N)c(Nc3ccc(OCc4ccccn4)c(Cl)c3)c2cc1NC(=O)/C=C/CN(C)C [Neratinib] + C[C@@H](Oc1cc(-c2cnn(C3CCNCC3)c2)cnc1N)c1c(Cl)ccc(F)c1Cl [Crizotinib] (partner 1 µM)
In short: as §1

Neratinib + AZD7762 = compound: CCOc1cc2ncc(C#N)c(Nc3ccc(OCc4ccccn4)c(Cl)c3)c2cc1NC(=O)/C=C/CN(C)C [Neratinib] + NC(=O)Nc1cc(-c2cccc(F)c2)sc1C(=O)N[C@H]1CCCNC1 [AZD7762] (partner 0.2 µM)
In short: as §1

Neratinib + Vorinostat = compound: CCOc1cc2ncc(C#N)c(Nc3ccc(OCc4ccccn4)c(Cl)c3)c2cc1NC(=O)/C=C/CN(C)C [Neratinib] + O=C(CCCCCCC(=O)Nc1ccccc1)NO [Vorinostat] (partner 1 µM)
In short: as §1

Row | Cell Line | relative viability (Neratinib + Palbociclib; first compound 0.01 µM) | relative viability (Neratinib + Palbociclib; first compound 0.03162 µM) | relative viability (Neratinib + Palbociclib; first compound 0.1 µM) | relative viability (Neratinib + Palbociclib; first compound 0.3162 µM) | relative viability (Neratinib + Palbociclib; first compound 1 µM) | relative viability (Neratinib + Crizotinib; first compound 0.01 µM) | relative viability (Neratinib + Crizotinib; first compound 0.03162 µM) | relative viability (Neratinib + Crizotinib; first compound 0.1 µM) | relative viability (Neratinib + Crizotinib; first compound 0.3162 µM) | relative viability (Neratinib + Crizotinib; first compound 1 µM) | relative viability (Neratinib + AZD7762; first compound 0.01 µM) | relative viability (Neratinib + AZD7762; first compound 0.03162 µM) | relative viability (Neratinib + AZD7762; first compound 0.1 µM) | relative viability (Neratinib + AZD7762; first compound 0.3162 µM) | relative viability (Neratinib + AZD7762; first compound 1 µM) | relative viability (Neratinib + Vorinostat; first compound 0.01 µM) | relative viability (Neratinib + Vorinostat; first compound 0.03162 µM) | relative viability (Neratinib + Vorinostat; first compound 0.1 µM) | relative viability (Neratinib + Vorinostat; first compound 0.3162 µM) | relative viability (Neratinib + Vorinostat; first compound 1 µM)
1 | 201T | 0.361 | 0.351 | 0.343 | 0.321 | 0.335 | 1.08 | 0.974 | 0.861 | 1.06 | 0.959 | 0.672 | 0.618 | 0.447 | 0.59 | 0.527 | 0.978 | 0.95 | 0.783 | 0.969 | 0.849
2 | A549 |  |  |  |  |  | 1 | 0.796 | 0.713 | 0.68 | 0.187 |  |  |  |  |  |  |  |  |  | 
3 | A-427 | 0.554 | 0.576 | 0.565 | 0.488 | 0.513 | 1.07 | 0.936 | 0.819 | 0.924 | 0.566 | 0.811 | 0.725 | 0.704 | 0.729 | 0.338 | 0.958 |  | 0.849 |  | 0.857
4 | ABC-1 | 0.618 | 0.721 | 0.472 | 0.587 | 0.486 | 1.47 | 0.954 | 1.06 | 0.668 | 0.537 | 0.955 | 0.659 | 0.682 | 0.779 |  | 1.57 |  | 0.813 | 1.13 | 0.713
5 | BEN | 0.459 | 0.47 | 0.45 | 0.457 | 0.447 | 0.849 | 1.1 | 0.869 | 0.762 | 0.509 | 0.745 | 0.804 | 0.628 | 0.571 | 0.596 | 0.562 | 0.596 | 0.606 | 0.552 | 0.43
6 | CAL-12T | 0.41 | 0.478 | 0.179 | 0.118 | 0.184 | 0.84 | 0.945 | 0.408 | 0.256 | 0.206 | 0.616 | 0.695 | 0.556 |  | 0.646 | 0.802 | 0.835 | 0.553 | 0.436 | 0.198
7 | COR-L23 | 0.328 | 0.333 | 0.275 | 0.255 | 0.216 | 0.853 | 0.678 | 0.589 | 0.564 | 0.503 |  |  |  |  |  | 0.466 | 0.468 | 0.486 | 0.449 | 0.235
8 | COR-L 105 | 0.397 | 0.451 | 0.385 | 0.351 | 0.341 | 0.978 | 0.828 | 0.531 | 0.201 | 0.22 |  |  |  |  |  | 0.781 | 0.817 | 0.5 | 0.505 | 0.33
9 | Calu-6 |  |  |  |  |  | 0.905 | 0.939 | 0.737 | 0.692 | 0.422 |  |  |  |  |  |  |  |  |  | 
10 | ChaGo-K-1 | 0.997 | 0.986 | 0.93 | 0.956 | 0.867 | 1.3 | 1.24 | 1.14 | 1.02 | 0.845 | 0.93 | 0.879 | 0.648 | 0.842 | 0.788 | 0.9 | 0.814 | 0.675 | 0.799 | 0.799
11 | EBC-1 |  |  |  |  |  | 0.167 | 0.204 | 0.175 |  | 0.203 |  |  |  |  |  |  |  |  |  | 
12 | EKVX | 0.384 | 0.448 | 0.243 | 0.132 | 0.152 | 1.32 | 1.08 | 0.823 | 0.452 | 0.211 | 0.726 | 0.699 | 0.609 | 0.441 | 0.199 | 0.889 | 0.801 | 0.498 | 0.276 | 0.308
13 | EMC-BAC-2 | 0.538 | 0.526 | 0.492 | 0.532 | 0.41 | 0.828 | 0.817 | 0.635 | 0.709 | 0.407 | 1.19 | 1.19 | 1 | 1.08 | 0.974 | 0.898 | 0.565 | 0.447 | 0.46 | 0.351
14 | EPLC-272H | 0.357 | 0.309 | 0.224 | 0.295 | 0.292 | 0.997 | 0.964 | 0.799 | 0.613 | 0.553 | 0.209 | 0.193 | 0.112 | 0.181 | 0.205 | 0.287 | 0.498 | 0.415 | 0.332 | 0.269
15 | H3255 | 0.304 | 0.324 | 0.305 | 0.256 | 0.201 | 0.836 | 0.838 | 0.671 | 0.243 | 0.164 | 1.01 | 0.824 | 0.588 | 0.288 | 0.247 | 0.826 | 0.826 | 0.65 | 0.509 | 0.191
16 | HARA | 0.24 | 0.275 | 0.237 | 0.195 | 0.227 | 1.19 | 1.09 | 0.731 | 0.782 | 0.489 | 0.563 | 0.293 | 0.263 |  | 0.261 | 0.584 | 0.656 |  | 0.577 | 0.355
17 | IA-LM |  |  |  |  |  | 0.981 | 0.799 | 0.681 | 0.766 | 0.536 |  |  |  |  |  | 0.983 | 1 |  | 0.924 | 0.715
